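Tested at 5 concentrations; 48 h exposure; 96-well plates; endpoints linearly interpolated, else capped at highest concentration. At the TGI there is no net growth.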
How the values were obtained:
Test in all cases: NCI-60 cell line screen, 48 h
UACC-62 melanoma = tested on: UACC-62 melanoma
NCI-H522 lung = tested on: NCI-H522 lung
LOX IMVI melanoma = tested on: LOX IMVI melanoma
SW-620 colon = tested on: SW-620 colon
UO-31 renal = tested on: UO-31 renal
MCF7 breast = tested on: MCF7 breast
786-0 renal = tested on: 786-0 renal
NCI-H226 lung = tested on: NCI-H226 lung
CAKI-1 renal = tested on: CAKI-1 renal
SNB-19 CNS = tested on: SNB-19 CNS
RXF 393 renal = tested on: RXF 393 renal
NCI/ADR-RES ovarian = tested on: NCI/ADR-RES ovarian
SF-268 CNS = tested on: SF-268 CNS
IGROV1 ovarian = tested on: IGROV1 ovarian

Structure (SMILES)	TGI (UACC-62 melanoma) [µM]	TGI (NCI-H522 lung) [µM]	TGI (LOX IMVI melanoma) [µM]	TGI (SW-620 colon) [µM]	TGI (UO-31 renal) [µM]	TGI (MCF7 breast) [µM]	TGI (786-0 renal) [µM]	TGI (NCI-H226 lung) [µM]	TGI (CAKI-1 renal) [µM]	TGI (SNB-19 CNS) [µM]	TGI (RXF 393 renal) [µM]	TGI (NCI/ADR-RES ovarian) [µM]	TGI (SF-268 CNS) [µM]	TGI (IGROV1 ovarian) [µM]
Cc1n[nH]c(=O)n1N=C(c1ccccc1)c1ccccc1	> 100	> 100	> 100	> 100	> 100	> 100	> 100	> 100	> 100	> 100	> 100	> 100	> 100	> 100
CC(=O)OC[C@@]12C[C@H]3C(=O)C(C)(C)C[C@H]3[C@]1(C)[C@@H](OC(C)=O)[C@]1(O)[C@H]([C@@H](OC(=O)c3ccccc3)[C@@H](C)[C@H]1OC(C)=O)[C@H]2OC(C)=O	> 20	> 20	> 20	> 20	> 20	> 20	> 20	> 20	> 20	> 20	> 20	> 20	> 20	> 20
CCOC(=O)c1nc2cc(C(F)(F)F)ccc2nc1Nc1ccc(Cl)c(Cl)c1	> 100	> 100	> 100	> 100	> 100	> 100	> 100	> 100	> 100	> 100	> 100	> 100	> 100	> 100
O=C(O)CCC1(c2ccccc2)NC(=O)NC1=O (stereo not drawn)	> 100	> 100	> 100	> 100		> 100	> 100	> 100	> 100	> 100	> 100	> 100	> 100	> 100
CC(Cc1ccc(O)c(O)c1)C(C)Cc1ccc(O)c(O)c1 (stereo not drawn)	32.8	4.91	38.8	49.9	23.1	41.8	32.8	59.8	25.4	50.9	31.7	64.7	41.6	33.6
CN1C[C@@H]2CCCN2P1Oc1cccc2cccnc12 (stereo partly drawn)	> 100	> 100	> 100	> 100	> 100	65.4	> 100	> 100	> 100	> 100	> 100	62.3	69.7	> 100
N#Cc1c(C#N)c(SSc2c(C#N)c(C#N)c(N)n2-c2ccccc2)n(-c2ccccc2)c1N	46.4	> 100	> 100	3.43	3.08	5.84		54.3	2.99	> 63.1	44.7	> 71.4	> 72	> 60.5
N#Cc1c(NC(=S)NCc2ccccc2)sc2c1CCN(N1CCc3c(sc(NC(=S)NCc4ccccc4)c3C#N)C1)C2	> 100	> 100	> 100	> 100	> 100	> 100	> 100	> 100	> 100	> 100	> 100	> 100	> 100	> 100
C=C(Cl)C(Cl)(CBr)CCC(Cl)C(C)(C)Cl (stereo not drawn)		23	28	4.75	5.15	3.56	1.32	61	2.48	7	10.9	11.8	2.92	26.3
COC(=O)C1=C(O)C(C(=O)OC)[C@]2(O)[C@H](C(=O)OC)[C@H]1C[C@@H](c1ccc(OC)cc1)[C@H]2C(=O)OC (stereo partly drawn)	25.8	17.7	78.5	> 100	34.9	> 100	47.3	> 100	62.1	79.8	42	> 100	> 100	> 100
Cn1c(=O)n(CC(Br)CBr)c(=O)n(CC(Br)CBr)c1=O (stereo not drawn)	72.8	> 100	34.9	> 100	97.6	> 100	> 100	58.9	> 100	> 100	> 100	> 100	> 100	> 100
NC(CCCCNc1ccn(C2OC(CO)C(O)C2O)c(=O)n1)C(=O)O (stereo not drawn)	> 100	> 100	> 100	> 100	> 100	> 100	> 100	> 100	> 100	> 100	> 100	> 100	> 100	> 100
CC1(C)CCc2c(c(N=Nc3ccccc3)c3ccccc3c2O)O1	> 100	> 100	54	> 100	60.3	47	30.8	> 100	69.1	> 100	33.6	> 100	> 100	> 100
S=C1C=C(c2ccccc2)Sc2ccccc2N1	> 100	> 100	> 100		> 100	> 100	> 100	> 100	> 100	> 100	> 100	> 100	> 100	> 100
O=C(NC(Nc1ccc(F)c(Cl)c1)(C(F)(F)F)C(F)(F)F)C(C(F)(F)F)C(F)(F)F		44.8	29.9	> 100	59.1	> 100	> 100	64.7	> 100	> 100	63.4	63.4	> 100	33.4
CC12ON=C(c3ccccc3)N1C=CN1C(c3ccccc3)=NOC12 (stereo not drawn)	> 100	> 100	> 100		> 100	> 100	> 100	> 100	> 100	> 100	> 100	> 100	> 100	> 100
